Patent US8624034B2, “Fluoro-pyridinone derivatives useful as antibacterial agents” (Pfizer Inc., priority 2011, dated 2014)
Converted amounts (≈) assume the structure as drawn. Where two headings read alike, the source gives them in different places.

Legend:
[1] = tested on: Escherichia coli EC-1: VOGEL, mouse virulent; assay: MIC determination, EC-1; type: cell-based; conditions: Escherichia coli
How it was run: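 MIC against mouse-virulent E. coli EC-1 (VOGEL) was determined by CLSI M7-A8 broth dilution with 2-fold drug increments and overnight incubation. The MIC is the lowest concentration with no visible growth versus drug-free control. Tests were run in duplicate and the lower value reported if within 2-fold, with QC organisms and reference drugs in each run.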

[2] = biological target: T1, Pseudomonas aeruginosa LpxC enzyme (Pseudomonas aeruginosa, UniProt P47205); assay: IC50 assay, LpxC enzyme from P. aeruginosa (PA LpxC enzyme IC50); type: biochemical; conditions: LpxC enzyme 0.1 nM, 25° C., 1 hour, read-out: PA:IC50
T1 construct: made in house; host or cells: E. coli
T1 sequence (P47205 1-303): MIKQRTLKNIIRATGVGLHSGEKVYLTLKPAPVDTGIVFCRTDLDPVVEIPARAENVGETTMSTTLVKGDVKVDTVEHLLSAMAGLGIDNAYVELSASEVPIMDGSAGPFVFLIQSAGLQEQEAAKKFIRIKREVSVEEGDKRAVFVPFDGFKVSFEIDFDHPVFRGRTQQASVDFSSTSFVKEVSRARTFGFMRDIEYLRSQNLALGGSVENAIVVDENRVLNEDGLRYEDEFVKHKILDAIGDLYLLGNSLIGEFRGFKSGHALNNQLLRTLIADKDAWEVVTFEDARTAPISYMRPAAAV
How it was run: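 The LpxC reaction ran 1 hour and was stopped with HCl. Substrate-to-product conversion was measured by RapidFire mass spectrometry, and IC50 values were calculated from percent conversion relative to a no-enzyme control.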

[3] = tested on: Pseudomonas aeruginosa UI-18: wild-type (PA-7); assay: MIC determination, PA-7; type: cell-based; conditions: Table 2, lower of duplicate values
Procedure: The in vitro antibacterial activity of compounds described in the Examples was evaluated by minimum inhibitory concentration (MIC) testing according to Clinical and Laboratory Standards Institute (CLSI). See: Clinical and Laboratory Standards Institute. Methods for Dilution Antimicrobial Susceptibility Tests for Bacteria that Grow Aerobically; Approved Standard-Eighth Edition. CLSI document M7-A8 [ISBN 1-56238-689-1]. Clinical and Laboratory Standards Institute, 940 West Valley Road, Suite 1400, Wayne, Pa. 19087-1898 USA, 2006; also Clinical and Laboratory Standards Institute. Performance Standards for Antimicrobial Susceptibility Testing; Twentieth Informational Supplement. CLSI document M100-S20 [ISBN 1-56238-716-2]. Clinical and Laboratory Standards Institute.
The MIC determination is a standard laboratory method for evaluating the antibacterial activity of a compound. The MIC represents the lowest drug concentration that inhibits visible growth of bacteria following overnight incubation. […] Typically, the drug concentration range is broken down into 2-fold increments (e.g. 0.06 μg/mL, 0.12 μg/mL. 0.25 μg/mL, 0.50 μg/mL, 1.0 μg/mL, etc.) and the various drug concentrations are all individually incubated overnight with approximately the same number of bacteria. The MIC is then determined by visually inspecting the drug effect at each concentration, and identifying the lowest drug concentration that has inhibited bacterial growth as compared to the drug free control. Typically, bacteria continue to grow at drug concentrations lower than the MIC and don't grow at concentrations at and above the MIC.
The MIC values described in Table 2 and 3 below were derived from assays wherein each test compound was evaluated in duplicate. In cases where the duplicate values varied by 0-2-fold, the lower of the two values was reported below. Generally speaking, if the duplicate values varied by more than 2-fold, the assay was considered non-valid and was repeated until the variation between duplicate runs was ≦2-fold. In line with the CLSI guidelines referred to above, both control organisms and reference compounds were utilized in each MIC assay to provide proper quality control. MIC values generated with these control organisms and reference compounds were required to fall within a defined range for the assay to be considered valid and be included herein. Those skilled in the art will recognize that MIC values can and do vary from experiment to experiment. Generally speaking, it should be recognized that MIC values often vary +/−2-fold from experiment to experiment. While a single MIC is reported for each compound and each microorganism, the reader should not conclude that each compound was only tested once. Several of the compounds were subjected to multiple tests. The data reported in Tables 2 and 3 is reflective of the compounds relative activity and different MICs may have been generated on these occasions in line with the guidelines described above.
The following bacterial strains were used in these MIC determinations:
1) Pseudomonas aeruginosa UI-18: Wild-type, labeled as PA-7 in Tables 2 and 3;

[4] = tested on: Acinetobacter baumannii/haemolyticus, multidrug-resistant clinical isolate (AB-3167); assay: MIC determination, AB-3167; type: cell-based
How it was run: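 Broth dilution MIC per CLSI M7-A8, 2-fold drug series, overnight incubation, lowest concentration visibly inhibiting growth against drug-free control. Run in duplicate, lower value reported; duplicates differing >2-fold repeated; QC strains and reference compounds required in range.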

PA:UC12120 = assay: MIC determination, PA:UC12120 (Table 3); type: cell-based, Pseudomonas aeruginosa; conditions: Pseudomonas aeruginosa, UC12120, Table 3, lower of duplicate values
How it was run: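 CLSI broth dilution MIC with 2-fold concentration steps, overnight incubation; MIC is the lowest concentration visibly inhibiting growth versus drug-free control. Run in duplicate, lower value reported when within 2-fold; control organisms and reference compounds required within defined ranges.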

[5] = read-out: EC-1 (MIC), Table 2, lower of duplicate values
[6] = Table 2, lower of duplicate values

Structure (SMILES)	MIC [1, 5]	IC50 ([2]; Table 2)	MIC [3]	MIC [4, 6]	MIC ([1]; read-out: EC-1 (MIC), Table 3, lower of duplicate values)	IC50 ([2]; Table 3)	MIC ([4]; Table 3, lower of duplicate values)	MIC (PA:UC12120)
Cc1cccc(-c2cc(=O)n(CC[C@](C)(C(=O)NO)S(C)(=O)=O)cc2F)c1 [Example 13, (2R)-4-[5-Fluoro-4-(3-methylphenyl)-2-oxopyridin-1(2H)-yl]-N-hydroxy-2-methyl-2-(methylsulfonyl)butanamide]	1 µg/mL (≈ 2.52 µM)	1.05 nM	1 µg/mL (≈ 2.52 µM)	> 64 µg/mL				
C[C@@](CCn1cc(F)c(-c2ccc(-n3ncnn3)cc2)cc1=O)(C(=O)NO)S(C)(=O)=O [Example 1, (2R)-4-{5-fluoro-2-oxo-4-[4-(2H-tetrazol-2-yl)phenyl]pyridin-1(2H)-yl}-N-hydroxy-2-methyl-2-(methylsulfonyl)butanamide]	> 64 µg/mL	1.49 nM	32 µg/mL (≈ 71 µM)	> 64 µg/mL				
C[C@@](CCn1cc(F)c(-c2ccc3c(c2)CCCO3)cc1=O)(C(=O)NO)S(C)(=O)=O [Example 8, (2R)-4-[4-(3,4-Dihydro-2H-chromen-6-yl)-5-fluoro-2-oxopyridin-1(2H)-yl]-N-hydroxy-2-methyl-2-(methylsulfonyl)butanamide]	0.5 µg/mL (≈ 1.14 µM)	0.377 nM	1 µg/mL (≈ 2.28 µM)	> 64 µg/mL				
C[C@@](CCn1cc(F)c(-c2ccc3c(c2)OC(F)(F)O3)cc1=O)(C(=O)NO)S(C)(=O)=O [Example 47, (2R)-4-[4-(2,2-Difluoro-1,3-benzodioxol-5-yl)-5-fluoro-2-oxopyridin-1(2H)-yl]-N-hydroxy-2-methyl-2-(methylsulfonyl)butanamide]	0.25 µg/mL (≈ 0.541 µM)		0.5 µg/mL (≈ 1.08 µM)	> 64 µg/mL				
COc1ccc(-c2ccc(-c3cc(=O)n(CC[C@](C)(C(=O)NO)S(C)(=O)=O)cc3F)cc2)cn1 [Example 32, (2R)-4-{5-Fluoro-4-[4-(6-methoxypyridin-3-yl)phenyl]-2-oxopyridin-1(2H)-yl}-N-hydroxy-2-methyl-2-(methylsulfonyl)butanamide]	≤ 0.06 µg/mL	0.4 nM	1 µg/mL (≈ 2.04 µM)	> 64 µg/mL				
C[C@@](CCn1cc(F)c(-c2ccccc2)c(O)c1=O)(C(=O)NO)S(C)(=O)=O [Example 40, (2R)-4-(5-Fluoro-3-hydroxy-2-oxo-4-phenylpyridin-1(2H)-yl)-N-hydroxy-2-methyl-2-(methylsulfonyl)butanamide]	16 µg/mL (≈ 40.2 µM)	> 100 nM	16 µg/mL (≈ 40.2 µM)	64 µg/mL (≈ 161 µM)				
COc1cccc(-c2cc(=O)n(CC[C@](C)(C(=O)NO)S(C)(=O)=O)cc2F)c1F [Example 17, (2R)-4-[5-fluoro-4-(2-fluoro-3-methoxyphenyl)-2-oxopyridin-1(2H)-yl]-N-hydroxy-2-methyl-2-(methylsulfonyl)butanamide]	0.5 µg/mL (≈ 1.16 µM)	0.5 nM	1 µg/mL (≈ 2.32 µM)	> 64 µg/mL				
C[C@@](CCn1cc(F)c(-c2ccc(OCC(F)(F)F)cc2)cc1=O)(C(=O)NO)S(C)(=O)=O [Example 7, (2R)-4-{5-Fluoro-2-oxo-4-[4-(2,2,2-trifluoroethoxy)phenyl]pyridin-1(2H)-yl}-N-hydroxy-2-methyl-2-(methylsulfonyl)butanamide]	0.25 µg/mL (≈ 0.52 µM)	0.576 nM	1 µg/mL (≈ 2.08 µM)	> 64 µg/mL				
Cc1cc(-c2cc(=O)n(CC[C@](C)(C(=O)NO)S(C)(=O)=O)cc2F)ccc1-n1nccn1 [Example 37, (2R)-4-{5-Fluoro-4-[3-methyl-4-(2H-1,2,3-triazol-2-yl)phenyl]-2-oxopyridin-1(2H)-yl}-N-hydroxy-2-methyl-2-(methylsulfonyl)butanamide]	0.5 µg/mL (≈ 1.08 µM)		1 µg/mL (≈ 2.16 µM)	> 64 µg/mL				
CC(CCn1cc(F)c(-c2ccc(C#N)nc2)cc1=O)(C(=O)NO)S(C)(=O)=O (centres unmarked) [Example 70, 4-(6-cyano-5′-fluoro-2′-oxo-3,4′-bipyridin-1′(2′H)-yl)-N-hydroxy-2-methyl-2-(methylsulfonyl)butanamide]					> 64 µg/mL	33.3 nM	> 64 µg/mL	64 µg/mL (≈ 157 µM)
